Experimental data as given in PMC10350917 (Journal of Medicinal Chemistry, 2023).

How the values were obtained:
[1] = test system: ADC-33 in pBCSK(−) E. coli DH10B; assay: Agar dilution AST, ADC-33; type: cell-based
Description: (§1) Susceptibility testing to standard antibiotics was performed by broth microdilution or agar dilution using an Oxoid replicator according to 2021 Clinical and Laboratory Standards Institute (CLSI) guidelines. MICs for CAZ, CTX, FEP, and TOL were determined using cation-adjusted Mueller Hinton MH broth, and MICs for FDC were done in iron-depleted cation-adjusted MH broth according to CLSI methods. MB076, S02030, and VAB were used at a fixed concentration of 10 mg/L. All MICs were interpreted according to the 2021 CLSI guidelines.[43]
(§2) blaADC-7 pBCSK- was cloned and expressed in E. coli DH10B cells as previously described.[44] All other blaADC variants were synthesized by GenScript according to the blaADC-7 pBCSK- strategy, cloning into the XbaI/BamHI sites of the pBCSK- vector.

[2] = test system: ADC-162 in pBCSK(−) E. coli DH10B; assay: Agar dilution AST, ADC-162; type: cell-based; details: Escherichia coli
Description: as §1, §2

[3] = test system: ADC-219 in pBCSK(−) E. coli DH10B; assay: Agar dilution AST, ADC-219; type: cell-based; details: Escherichia coli, E. coli DH10B ADC-219, MB076, S02030, VAB fixed at 10 mg/L
Description: as §1, §2

[4] = test system: ADC-7 in pBCSK(−) E. coli DH10B; assay: Agar dilution AST, ADC-7; type: cell-based; details: Escherichia coli, E. coli DH10B ADC-7, MB076, S02030, VAB fixed at 10 mg/L
Description: as §1, §2

[5] = test system: ADC-30 in pBCSK(−) E. coli DH10B; assay: Agar dilution AST, ADC-30; type: cell-based; details: Escherichia coli, E. coli DH10B ADC-30, MB076, S02030, VAB fixed at 10 mg/L
Description: as §1, §2

[6] = biological target: T1, ADC-33 (Acinetobacter baumannii, UniProt A7Y407); details: ADC-33; substrate
Description: Steady-state kinetic parameters were determined by combining pure enzyme with antibiotic substrates in 50 mM NaH2PO4, pH 7.4 at room temperature. Changes in absorbance were measured on a Cary 60 UV–Vis spectrophotometer (Agilent Technologies) and converted to velocity using the change in extinction coefficient specific to nitrocefin (ε482 = 17,400 M^–1·cm^–1), cephalothin (ε262 = 7660 M^–1·cm^–1), ceftazidime (ε260 = 8660 M^–1·cm^–1), cefotaxime (ε260 = 7500 M^–1·cm^–1), cefepime (ε260 = 750 M^–1·cm^–1), cefiderocol (ε259 = 9430 M^–1·cm^–1), and ceftolozane (ε254 = 6810 M^–1·cm^–1). Initial velocities were fit to the Michaelis–Menten equation yielding kcat and KM values. For ADC/substrate combinations in which the KM was too large to accurately determine both kcat and KM values, the initial velocities at kcat/KM values were calculated from linear fits of vo in low [S] ranges (<0.08 × KM).

[7] = test system: ADC-212 in pBCSK(−) E. coli DH10B; assay: Agar dilution AST, ADC-212; type: cell-based; details: Escherichia coli, E. coli DH10B ADC-212, MB076, S02030, VAB fixed at 10 mg/L
Description: as §1, §2

[8] = test system: ADC-219 in pBCSK(−) E. coli DH10B; assay: Broth microdilution AST, ADC-219; type: cell-based; details: Escherichia coli, E. coli DH10B ADC-219, MB076 fixed at 10 mg/L in combinations, FDC in iron-depleted broth
Description: as §1, §2

[9] = test system: ADC-30 in pBCSK(−) E. coli DH10B; assay: Broth microdilution AST, ADC-30; type: cell-based; details: Escherichia coli, E. coli DH10B ADC-30, MB076 fixed at 10 mg/L in combinations, FDC in iron-depleted broth
Description: as §1, §2

[10] = test system: ADC-33 in pBCSK(−) E. coli DH10B; assay: Broth microdilution AST, ADC-33; type: cell-based; details: Escherichia coli, E. coli DH10B ADC-33, MB076 fixed at 10 mg/L in combinations, FDC in iron-depleted broth
Description: as §1, §2

[11] = test system: ADC-212 in pBCSK(−) E. coli DH10B; assay: Broth microdilution AST, ADC-212; type: cell-based
Description: as §1, §2

[12] = test system: ADC-7 in pBCSK(−) E. coli DH10B; assay: Broth microdilution AST, ADC-7; type: cell-based; details: Escherichia coli, E. coli DH10B ADC-7, MB076 fixed at 10 mg/L in combinations, FDC in iron-depleted broth
Description: as §1, §2

[13] = biological target: ADC-30 (Acinetobacter baumannii, UniProt A7XM81); assay: Inhibition kinetics (competition with nitrocefin), ADC-30; type: biochemical; details: 100 μM nitrocefin, 3 min pre-incubation
Description: (§3) For inhibition kinetics, utilizing nitrocefin (NCF) as a colorimetric substrate, the inhibition constant (Ki) of MB076 and S02030 BATSI with ADCs was determined using competition kinetics as previously described.[10],[25],[28],[34] The measurements of the initial velocities were performed with the addition of 100 μM NCF after a 3 min pre-incubation of the enzyme (2 nM) with increasing concentration of the inhibitor. […] The Ki value was corrected for the NCF affinity (KM values for each ADC variant listed in Table 1) with the Cheng–Prusoff[35] equation: [drawing 2]

[14] = biological target: T1, ADC-33; assay: Inhibition kinetics (competition with nitrocefin), ADC-33; type: biochemical; details: 100 μM nitrocefin, 3 min pre-incubation
Description: as §3

[15] = biological target: ADC-7 (Acinetobacter baumannii, UniProt Q6DRA1); assay: Inhibition kinetics (competition with nitrocefin), ADC-7; type: biochemical; details: 100 μM nitrocefin, 3 min pre-incubation, Cheng–Prusoff corrected
Description: as §3

[16] = in vitro; details: human, plasma, pH 7.4
Description: (§4) The in vitro stability of MB076 and S02030 was evaluated by incubating the compounds in both buffer (pH 7.4) and human plasma at 37 °C over 48 h. Half-lives (t1/2) were then calculated for each compound.
(§5) Plasma and buffer stability samples were analyzed by monitoring the disappearance of the compounds using high-performance liquid chromatography-mass spectrometry (LC–MS) techniques.
Half-lives (t1/2) were calculated in Origin using a one-phase decay model with t1/2 = ln(2)/b, where b is the slope of a linear plot of natural logarithm (ln) of the remaining compound concentration (C) versus incubation time. Each condition was tested in triplicate.

[17] = biological target: ADC variants; assay: Inhibition kinetics, statement for all ADC variants; type: biochemical, Acinetobacter baumannii; details: bound stated for all ADC variants of the study
Description: as §3

[18] = physchem; details: buffer, pH 7.4
Description: as §4, §5
Standard solutions were prepared by adding the compound in DMSO (2.5 μM) to 0.1 M phosphate buffer pH 7.4 and MeOH. Solutions were vortexed, filtered, and analyzed by LC–MS (At=0). Samples were then prepared by adding a solution of the compound in DMSO (2.5 μM) to phosphate buffer pH 7.4 and incubating at 37 °C. At suitable time intervals, the reaction was stopped by the addition of MeOH. The solutions were vortexed and filtered. Degradation time courses were followed by LC–MS enabling the quantitation of compounds. Half-lives (t1/2) were calculated in Origin using a one-phase decay model with t1/2 = ln(2)/b, where b is the slope of a linear plot of natural logarithm (ln) of the remaining compound concentration (C) versus incubation time. Each condition was tested in triplicate.

[19] = biological target: ADC-162 (Acinetobacter baumannii, UniProt A0A2H4PPJ8); assay: Inhibition kinetics (competition with nitrocefin), ADC-162; type: biochemical
Description: as §3

CC(C)(O/N=C(\C(=O)N[C@@H]1C(=O)N2C(C(=O)[O-])=C(C[n+]3ccccc3)CS[C@H]12)c1csc(N)n1)C(=O)O [ceftazidime]
MIC ([1]; Escherichia coli, E. coli DH10B ADC-33, MB076, S02030, VAB fixed at 10 mg/L): 1020 µg/mL
MIC [2]: 128 µg/mL
MIC [3]: 64 µg/mL
MIC [4]: 64 µg/mL
MIC [5]: 64 µg/mL
kcat [6]: 3.71 s^–1
MIC [7]: 256 µg/mL
MIC [8]: 256 µg/mL
MIC [9]: 128 µg/mL
MIC [10]: 2050 µg/mL
MIC ([11]; Escherichia coli, E. coli DH10B ADC-212, MB076 fixed at 10 mg/L in combinations, FDC in iron-depleted broth): 512 µg/mL
MIC [12]: 64 µg/mL

Nc1nnc(SCC(=O)N[C@@H](Cn2cc(C(=O)O)nn2)B(O)O)s1 [MB076, (R)-1-(2-(2-((5-Amino-1,3,4-thiadiazol-2-yl)thio)acetamido)-2-boronoethyl)-1H-1,2,3-triazole-4-carboxylic Acid]
increase of susceptibility to CAZ relative to S02030 ([1]; ADC-33 variant, inhibitors 10 mg/L): 3 fold
Ki [13]: 58 ± 5 nM
Ki [14]: 100 ± 4 nM
Ki [15]: 210 ± 16 nM
reduction of the CTX MIC by MB076 ([11]; ADC-212, MB076 10 mg/L): 3 fold doubling dilution
half-life at 2.5 μM [16]: 29 h
Ki [17]: < 1000 nM
half-life [18]: 33 h
Ki [19]: 790 ± 39 nM
